Experimental data taken from patent US10106542B2, “Substituted 6,7-dihydropyrazolo[1,5-a]pyrazines as negative allosteric modulators of mGluR2 receptors” (Janssen Pharmaceutica NV, priority 2013, dated 2018).
Counter-ions that a name gives are not always drawn.

What was measured:
human mGlu2 receptor = target: T1, human mGlu2 receptor (Homo sapiens, UniProt Q14416); experiment: [35S]GTPγS binding assay (mGluR2 negative allosteric modulation); type: biochemical; conditions: for IC50: membranes from CHO cells transfected with human mGlu2 receptor, glutamate 60 μM, pIC50 = −log IC50 (M), read-out: GTPγS - hmGluR2 anGT pIC50 (converted); for Emax: relative maximal effect: maximal % inhibition relative to the control glutamate response, read-out: GTPγS - hmGluR2 anGT Emax
T1 construct: expressed in transfected cells; host or cells: CHO cells (membrane preparation)
T1 sequence (Q14416 19-872): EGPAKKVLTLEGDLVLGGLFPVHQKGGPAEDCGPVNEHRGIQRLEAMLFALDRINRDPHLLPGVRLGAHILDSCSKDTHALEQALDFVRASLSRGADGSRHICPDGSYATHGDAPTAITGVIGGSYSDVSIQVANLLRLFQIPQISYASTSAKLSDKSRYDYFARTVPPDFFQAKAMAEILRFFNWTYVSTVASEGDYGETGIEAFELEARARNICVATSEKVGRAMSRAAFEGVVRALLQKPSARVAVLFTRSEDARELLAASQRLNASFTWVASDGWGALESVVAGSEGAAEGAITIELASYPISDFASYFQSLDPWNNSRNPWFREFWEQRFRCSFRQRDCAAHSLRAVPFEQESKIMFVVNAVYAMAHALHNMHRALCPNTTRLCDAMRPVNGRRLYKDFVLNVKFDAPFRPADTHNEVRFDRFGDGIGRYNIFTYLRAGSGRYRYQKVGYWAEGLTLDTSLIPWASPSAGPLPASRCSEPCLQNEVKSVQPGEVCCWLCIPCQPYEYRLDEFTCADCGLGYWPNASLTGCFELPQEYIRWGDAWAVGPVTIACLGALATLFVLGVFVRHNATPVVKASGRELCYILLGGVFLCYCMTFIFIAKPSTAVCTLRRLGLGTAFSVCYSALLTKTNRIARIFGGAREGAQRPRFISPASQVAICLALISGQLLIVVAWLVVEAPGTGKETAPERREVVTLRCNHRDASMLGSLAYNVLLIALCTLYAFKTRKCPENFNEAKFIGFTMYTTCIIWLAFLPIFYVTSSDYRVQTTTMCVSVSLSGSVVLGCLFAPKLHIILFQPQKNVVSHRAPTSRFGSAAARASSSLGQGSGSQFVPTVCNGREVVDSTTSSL
Procedure: 1) [^35S]GTPγS binding assay
The [^35S]GTPγS binding assay is a functional membrane-based assay used to study G-protein coupled receptor (GPCR) function whereby incorporation of a non-hydrolysable form of GTP, [^35S]GTPγS (guanosine 5′-triphosphate, labelled with […] ^35S), is measured. The G-protein a subunit catalyzes the exchange of guanosine 5′-diphosphate (GDP) by guanosine triphosphate (GTP) and on activation of the GPCR by an agonist, [^35S]GTPγS, becomes incorporated and cannot be cleaved to continue the exchange cycle (Harper (1998) Current Protocols in Pharmacology 2.6.1-10, John Wiley & Sons, Inc.). […] Here we describe the use of the [^35S]GTPγS binding assay using membranes from cells transfected with the human mGlu2 receptor and adapted from Schaffhauser et al. (Molecular Pharmacology, 2003, […]) for the detection of the negative allosteric modulation (NAM) properties of the compounds of this invention.
CHO-cells were cultured to pre-confluence and stimulated with 5 mM butyrate for 24 h. Cells were then collected by scraping in PBS and cell suspension was centrifuged (10 min at 4000 RPM in benchtop centrifuge). Supernatant was discarded and pellet gently resuspended in 50 mM Tris-HCl, pH 7.4 by mixing with an Ultra Turrax homogenizer. The suspension was centrifuged at 12,400 RPM (Sorvall F14S-6x250Y) for 10 minutes and the supernatant discarded. The pellet was homogenized in 5 mM Tris-HCl, pH 7.4 using an Ultra Turrax homogenizer and centrifuged again (13,000 RPM, 20 min, 4° C.). The final pellet was resuspended in 50 mM Tris-HCl, pH 7.4 and stored at −80° C. in appropriate aliquots before use. Protein concentration was determined by the Bradford method (Bio-Rad, USA) with bovine serum albumin as standard.
Measurement of mGluR2 negative allosteric modulatory activity of test compounds was performed as follows. Test compounds and glutamate were diluted in assay buffer containing 10 mM HEPES acid, 10 mM HEPES salt, pH 7.4, 100 mM NaCl, 3 mM MgCl2 and 10 μM GDP. Human mGlu2 receptor-containing membranes were thawed on ice and diluted in assay buffer supplemented with 18 μg/ml saponin. […] After addition of [^35S]GTPγS (f.c. 0.1 nM), assay mixtures were shaken briefly and further incubated to allow [^35S]GTPγS incorporation on activation (30 minutes, 30° C.). Final assay mixtures contained 7 μg of membrane protein in 10 mM HEPES acid, 10 mM HEPES salt, pH 7.4, 100 mM NaCl, 3 mM MgCl2, 10 μM GDP and 10 μg/ml saponin. Total reaction volume was 200 μl. Reactions were terminated by rapid filtration through Unifilter-96 GF/B plates (Perkin Elmer, Massachusetts, USA) using a 96-well filtermate universal harvester. Filters were washed 6 times with ice-cold 10 mM NaH2PO4/10 mM Na2HPO4, pH 7.4. Filters were then air-dried, and 30 μl of liquid scintillation cocktail (Microscint-O) was added to each well. Membrane-bound radioactivity was counted in a Topcount.
The concentration-response curves of representative compounds of the present invention were generated using the Lexis software interface (developed at J&J). Data were calculated as % of the control glutamate response, defined as the response that is generated upon addition of an EC80-equivalent concentration of glutamate.

Row | IC50 (human mGlu2 receptor) | Emax (human mGlu2 receptor) | melting point | SMILES
1 | 9.55e-07 M | 101% | 133 °C | COc1cc(F)cc(N2C[C@H](C)n3ncc(-c4ccnc(C)c4)c3C2=O)c1 [compound 85]
2 | 2.51e-08 M | 106% | 48.2 °C | COCc1cc(N2C[C@H](C)n3ncc(-c4ccnc(C)c4)c3C2=O)ccc1C(F)(F)F [compound 158]
3 | 8.71e-09 M | 103% | 183.9 °C | CCOc1cc(N2C[C@H](C)n3ncc(-c4cc(C)nc(C)c4)c3C2=O)ccc1C(F)(F)F [compound 49]
4 | 1.1e-08 M | 104% | 93 °C | COc1cc(N2C[C@H](C)n3ncc(-c4cc(C)nc(C)c4)c3C2=O)ccc1C(F)(F)F [compound 51]
5 | 9.55e-09 M | 103% | 146.8 °C | C[C@H]1CN(c2ccc(C(F)(F)F)c(Cl)c2)C(=O)c2c(-c3ccncc3)cnn21 [compound 50]
6 | 6.92e-07 M | 100% | 135.1 °C | CC[C@@H]1CN(c2ccc(C(F)(F)F)cc2)C(=O)c2c(-c3ccnc(C)c3)cnn21 [compound 129]
7 | 4.07e-09 M | 108% | 161.4 °C | Cc1cc(-c2cnn3c2C(=O)N(c2ccc(C(F)(F)F)c(Cl)n2)C[C@@H]3C)ccn1 [compound 188, (7S)-5-[6-chloro-5-(trifluoromethyl)-2-pyridyl]-7-methyl-3-(2-methyl-4-pyridyl)-6,7-dihydropyrazolo[1,5-a]pyrazin-4-one]
8 | 6.61e-09 M | 107% | 189.5 °C | CCOc1cc(-c2cnn3c2C(=O)N(c2ccc(C(F)(F)F)cc2)C[C@@H]3C)ccn1 [compound 123]
9 | 8.71e-09 M | 104% | 158.9 °C | Cc1cc(-c2cnn3c2C(=O)N(c2ccc(C(F)(F)F)c(C)c2)C[C@@H]3C)cc(C)n1 [compound 157]
10 | – | – | 293.6 °C | COc1ccc(N2C[C@H](C)n3ncc(-c4ccnc(C)c4)c3C2=O)cc1Cl (as salt: HCl) [compound 20]
11 | – | – | 294 °C | COc1ccc(N2C[C@H](C)n3ncc(-c4ccnc(C)c4)c3C2=O)cc1 (as salt: HCl) [compound 38]
12 | – | – | > 300 °C | Cc1cc(-c2cnn3c2C(=O)N(c2ccc(SC(F)(F)F)cc2)C[C@@H]3C)ccn1 (as salt: HCl) [compound 236]
13 | – | – | 282.3 °C | COCc1cc(-c2cnn3c2C(=O)N(c2ccc(C(F)(F)F)cc2)C[C@@H]3C)ccn1 (as salt: HCl) [compound 22]
14 | – | – | > 300 °C | CCOc1ccc(N2C[C@H](C)n3ncc(-c4ccnc(C)c4)c3C2=O)cc1Cl (as salt: HCl) [compound 17]

Further lines, the molecule ahead of its results:

Row | SMILES | IC50 (human mGlu2 receptor) | Emax (human mGlu2 receptor) | melting point
15 | Cc1cc(-c2cnn3c2C(=O)N(c2ccc(C(F)(F)F)c(F)c2)CC3)ccn1 [compound 39] | 1.62e-06 M | 100% | 185.2 °C
16 | CC(C)Nc1cc(-c2cnn3c2C(=O)N(c2ccc(C(F)(F)F)cc2)C[C@@H]3C)ccn1 [compound 266] | 5.25e-08 M | 106% | 173.08 °C
17 | C[C@H]1CN(c2ccc(C(F)(F)F)cc2)C(=O)c2c(-c3ccnc(N4CCNCC4)c3)cnn21.Cl [compound 175, (7S)-7-Methyl-3-(2-piperazin-1-yl-4-pyridyl)-5-[4-(trifluoromethyl)phenyl]-6,7-dihydropyrazolo[1,5-a]pyrazin-4-one hydrochloride salt] | 1.35e-06 M | 102% | 220.8 °C
18 | C[C@H]1CN(c2ccc(Cl)c(C(F)(F)F)c2)C(=O)c2c(-c3ccncc3)cnn21 [compound 68] | 7.08e-08 M | 100% | > 300 °C
19 | CC(O)c1cc(-c2cnn3c2C(=O)N(c2ccc(Cl)c(Cl)c2)C[C@@H]3C)ccn1 (stereo partly drawn) [compound 111, (7S)-5-(3,4-Dichlorophenyl)-3-[2-(1-hydroxyethyl)-4-pyridyl]-7-methyl-6,7-dihydropyrazolo[1,5-a]pyrazin-4-one] | 2.95e-07 M | 108% | > 300 °C
20 | Cc1cc(-c2cnn3c2C(=O)N(c2ccc(Cl)cc2)C[C@@H]3C)cc(C)n1 [compound 72] | 1.07e-07 M | 103% | 88 °C
21 | CCOc1cc(-c2cnn3c2C(=O)N(c2ccc(Cl)c(Cl)c2)C[C@@H]3C)ccn1 (as salt: HCl) [compound 133] | – | – | 191.5 °C
22 | C[C@H]1CN(c2ccc(C(F)(F)F)cc2)C(=O)c2c(-c3ccc(N)nc3)cnn21 [compound 37] | 9.77e-07 M | 99% | 254 °C
23 | C[C@H]1CN(c2ccc(C(F)(F)F)cc2)C(=O)c2c(-c3ccnc(N4CCCCC4)c3)cnn21 (as salt: HCl) [compound 107] | – | – | 294 °C
24 | CC(C)c1cc(-c2cnn3c2C(=O)N(c2ccc(Cl)c(Cl)c2)C[C@@H]3C)ccn1 [compound 124] | 3.02e-09 M | 108% | 62.4 °C
25 | C[C@H]1CN(c2ccc(C(F)(F)F)cc2)C(=O)c2c(-c3ccnc(N4CCOCC4)c3)cnn21 [compound 108] | 1.23e-07 M | 108% | 128.1 °C
26 | Cc1cc(-c2cnn3c2C(=O)N(c2ccc(C(F)(F)F)c(C#N)c2)C[C@@H]3C)cc(C)n1 [compound 59] | 3.55e-08 M | 98% | 214.1 °C
27 | C[C@H]1CN(c2ccc(Cl)c(Cl)c2)C(=O)c2c(-c3ccnc(C#N)c3)cnn21 [compound 109] | 1.86e-08 M | 107% | 149.8 °C
28 | COc1cc(-c2cnn3c2C(=O)N(c2ccc(Cl)c(Cl)c2)C[C@@H]3C)cc(C)n1 [compound 146] | 1.66e-08 M | 105% | 166.8 °C
29 | C[C@H]1CN(c2ccc(Cl)c(Cl)c2)C(=O)c2c(-c3ccncc3)cnn21 [compound 57] | 1.29e-08 M | 104% | 153.2 °C
30 | CCOc1ccc(N2C[C@H](C)n3ncc(-c4ccnc(C)c4)c3C2=O)nc1F [compound 191] | 1.07e-06 M | 109% | 60.7 °C
31 | C[C@H]1CN(c2ccc(C(F)(F)F)cn2)C(=O)c2c(-c3ccnc(F)c3)cnn21 [compound 197] | 1.51e-07 M | 104% | 146.6 °C
32 | C[C@H]1CN(c2ccc(S(F)(F)(F)(F)F)cc2)C(=O)c2c(-c3ccncc3)cnn21 [compound 56] | 1.62e-08 M | 102% | 199 °C
33 | CC(C)Oc1cc(-c2cnn3c2C(=O)N(c2ccc(C(F)(F)F)cc2)C[C@@H]3C)ccn1 (as salt: HCl) [compound 138] | – | – | 173.9 °C
34 | CC(C)Oc1cc(-c2cnn3c2C(=O)N(c2ccc(Cl)c(Cl)c2)C[C@@H]3C)ccn1 (as salt: HCl) [compound 137] | – | – | 193.8 °C
35 | Cc1cc(-c2cnn3c2C(=O)N(c2ccc(C4CC4)cc2)C[C@@H]3C)ccn1 [compound 156, (7S)-5-(4-Cyclopropylphenyl)-7-methyl-3-(2-methyl-4-pyridyl)-6,7-dihydropyrazolo[1,5-a]pyrazin-4-one] | 5.62e-08 M | 106% | –
36 | C[C@H]1CN(c2ccc(C(F)(F)F)cc2)C(=O)c2c(-c3ccnc(F)c3)cnn21 [compound 247] | 3.02e-08 M | 109% | –
